Residues, ends and D or L forms follow the SMILES beside them. *: point of attachment. Fmoc = O=C(OCC1c2ccccc2-c2ccccc21)*

This assay can be described thus: Mouse ribonucleotide reductase (mRR) activity was determined by relative dissociation constant which was assayed for binding activity to mR1.
Take `O=C(N[C@H](C(=O)O)c1ccccc1)OCC1c2ccccc2-c2ccccc21`: the Relative Kd came to 31.
Molecule `O=C(N[C@@H](Cc1ccccc1)C(=O)O)OCC1c2ccccc2-c2ccccc21` gave a Relative Kd of 22.
As for `CC(=O)N[C@@H](Cc1ccccc1)C(=O)N[C@H](C(=O)N[C@@H](CC(C)C)C(=O)N[C@@H](CC(=O)O)C(=O)N[C@@H](C)C(=O)N[C@@H](CC(=O)O)C(=O)N[C@@H](Cc1ccccc1)C(=O)O)[C@@H](C)O` (Ac-FTLDADF-OH), the Relative Kd came out at 1.
Molecule `O=C(N[C@@H](Cc1c[nH]c2ccccc12)C(=O)O)OCC1c2ccccc2-c2ccccc21` had a Relative Kd of 18.
As to `O=C(N[C@@H](Cc1c[nH]c2ccccc12)C(=O)N[C@@H](Cc1ccccc1)C(=O)N[C@@H](Cc1ccccc1)C(=O)O)OCC1c2ccccc2-c2ccccc21` (Fmoc-Trp-Phe-Phe-OH), the Relative Kd was found to be 1.
Under `CC(C)C[C@H](NC(=O)OCC1c2ccccc2-c2ccccc21)C(=O)O` stands 38.
